Experimental data as given in patent US11426394B2, “Method to prevent and treat macular degeneration by calcium channel blockers, angiotensin converting enzyme inhibitors, and angiotensin receptor blockers” (priority 2018, dated 2022).

Key:
[1] = in vivo; cited from earlier work
[2] = tested on: Macular Degeneration; details: chronic use; cited from earlier work
[3] = tested on: wet macular degeneration; experiment: Patient with wet macular degeneration: one eye treated, other eye left untreated; assay type: in vivo, human
Text: (§1) A patient is diagnosed with wet macular degeneration. A composition comprising the calcium channel blocker nifedipine is directly applied to the vitreous surface of one eye while the other eye is left untreated. […] A patient is diagnosed with wet macular degeneration. A composition comprising the ACE inhibitor enalapril is directly applied to the vitreous surface of one eye while the other eye is left untreated. […] A patient is diagnosed with wet macular degeneration. A composition comprising the angiotensin receptor blocker losartan is directly applied to the vitreous surface of one eye while the other eye is left untreated. […] A patient is diagnosed with wet macular degeneration. A composition comprising the calcium channel blocker nifedipine is directly injected into the intraocular space of one eye while the other eye is left untreated. […] A patient is diagnosed with wet macular degeneration. A composition comprising the ACE inhibitor enalapril is directly injected into the intraocular space of one eye while the other eye is left untreated. […] A patient is diagnosed with wet macular degeneration. A composition comprising the angiotensin receptor blocker losartan is directly injected into the intraocular space of one eye while the other eye is left untreated.

[4] = tested on: dry macular degeneration; experiment: Patient with dry macular degeneration: one eye treated, other eye left untreated; assay type: in vivo, human
Text: as §1, with “dry” for “wet”

[5] = composition directly applied to the vitreous surface of one eye
[6] = composition directly injected into the intraocular space of one eye

Row | Compound | symptoms of wet macular degeneration, treated eye versus untreated eye [3, 5] | symptoms of wet macular degeneration, treated eye versus untreated eye [3, 6] | symptoms of dry macular degeneration, treated eye versus untreated eye [4, 5] | symptoms of dry macular degeneration, treated eye versus untreated eye [4, 6] | further results
1 | CC1=C(/C=C/C(C)=C/C=C/C(C)=C/C=C/C=C(C)/C=C/C=C(C)/C=C/C2=C(C)CCCC2(C)C)C(C)(C)CCC1 [Beta carotene, beta carotene] |  |  |  |  | lung cancer [1]: increase lung cancer
2 | CC(=O)Oc1ccccc1C(=O)O [aspirin] |  |  |  |  | association with Macular Degeneration [2]: increase in Macular Degeneration
3 | CCOC(=O)[C@H](CCc1ccccc1)N[C@@H](C)C(=O)N1CCC[C@H]1C(=O)O [enalapril] | reduced symptoms of wet macular degeneration | reduced symptoms of wet macular degeneration | reduced symptoms of dry macular degeneration | reduced symptoms of dry macular degeneration | 
4 | CCCCc1nc(Cl)c(CO)n1Cc1ccc(-c2ccccc2-c2nn[nH]n2)cc1 [losartan] | reduced symptoms of wet macular degeneration | reduced symptoms of wet macular degeneration | reduced symptoms of dry macular degeneration | reduced symptoms of dry macular degeneration | 
5 | tocopherol |  |  |  |  | all-cause mortality [1]: increase in all-cause mortality
